These results are taken from patent US20240173283A1, “PROPHYLACTIC AGENT OR THERAPEUTIC AGENT FOR SIDE EFFECTS OF ANTHRACYCLINE ANTICANCER AGENT” (Kyushu University, National University Corporation, priority 2021, published 2024).

The structures appear in SMILES notation.

Data set [1] relates to Hela cells (human uterine cervical cancer cells). Kind of data set: Cell death evaluation assay (Cell Counting Kit-F) in Hela cells. It is filed as cell-based. The conditions noted are these: 24 hours, FIG. 10B. The procedure:
5′-ALA (1 mM) was added to Hela cells (human uterine cervical cancer cells), and doxorubicin (2 μM) was added thereto 1 hour later. […] The obtained results were normalized with those of the control group defined as 1, and presented as data.
(In general: Formazan colour is commonly taken as a measure of viable cells.)

The test system of data set [2] is Primary cardiomyocytes. The data set is described as follows: Cell death evaluation assay (Cell Counting Kit-F) in doxorubicin-treated primary cardiomyocytes. The conditions noted are these: FIG. 2. In kind it is cell-based, rat. The procedure: Primary cardiomyocytes were isolated by trypsin and collagenase treatment of the heart harvested from a neonatal rat, and inoculated onto a petri dish. After culture for several days, the culture medium was replaced with a serum-free medium (DMEM), and 2 μM (final concentration) doxorubicin was added from 24 hours later in the serum-free medium. Aminolevulinic acid (5′-ALA, 1 mM) or ferrostatin-1 (Fer-1, 50 μM) was added 1 hour before doxorubicin addition.

The subject of data set [3] is mitochondrial iron in rat primary cardiomyocytes. The data set is described as follows: Mito-FerroGreen fluorescent staining of mitochondrial iron in cardiomyocytes. The note with it: FIGS. 8A and 8B. It is filed as cell-based.
Protocol: 5′-ALA (1 mM) was added to isolated rat primary cardiomyocytes, and doxorubicin (2 M) was added from 1 hour later. The cells were washed once with PBS 24 hours after doxorubicin addition and cultured for 30 minutes in a medium supplemented with Mito-FerroGreen (5 µM) for fluorescent staining of mitochondrial iron. The cells were washed with PBS again and then observed under a fluorescence microscope (BZ-X800, Keyence Corp.) (FIG. 8A). The signal intensity of the obtained image was quantitatively analyzed in image J (NIH).
Data set [4] deals with iron in myocardial tissues. Kind of data set: Mitochondrial total iron (ferrozine method) in mouse heart tissues. The conditions noted are these: day 14, FIG. 9A.
For data set [5], the system named is EL-4 cells (mouse malignant lymphoma cells). The data set is described as follows: Cell survival evaluation by Trypan Blue staining in EL-4 cells. It is filed as cell-based. The note with it: 24 hours, FIG. 10A. The procedure: 5′-ALA (1 mM) was added to EL-4 cells (mouse malignant lymphoma cells), and doxorubicin (1 μM) was added thereto 1 hour later. The cells were collected 24 hours after doxorubicin addition, and dead cells were stained by Trypan Blue staining. The numbers of live cells and dead cells were counted in an automatic cell counter (Countess II FL, Thermo Fisher Scientific Inc.). Cell survival evaluation was conducted from the ratio (%) of the number of live cells to the total number of cells.

Data set [6] deals with ALAS1. Kind of data set: Alas1 western blot in rat primary cardiomyocytes. In kind it is cell-based. The note with it: doxorubicin 2 μM, 24 hours; β-Actin internal control; FIG. 6A. The source says: The obtained image was quantitatively analyzed in image J (NIH). β-Actin (Santa Cruz Biotechnology Inc., sc-47778) was used as an internal control.
Background: Immunoblotting shows a protein as a band on a membrane.

The next data set deals with protoporphyrin IX (PpIX). Kind of data set: Protoporphyrin IX measurement by mass spectrometer in cardiomyocytes. It is filed as cell-based, rat. The note with it: doxorubicin 2 μM, 24 hours; FIG. 7. The procedure: After doxorubicin (2 μM, 24 hours) addition to isolated rat primary cardiomyocytes, the cells were collected with PBS. 50% acetic acid and a dimethylformamide (DMF)/2-propanol (IPA) mixed solution were added to the collected sample, and the mixture was vigorously mixed by vortex. After centrifugation, a supernatant was recovered (supernatant 1), and a DMF/IPA mixed solution was added again to pellets, followed by centrifugation again. The supernatant thus obtained by centrifugation (supernatant 2) and the supernatant 1 were combined and used as protoporphyrin IX extracts. Acetonitrile was added to the extracts, and the mixture was deproteinized and then centrifuged at 20000 g for 20 minutes. Then, a supernatant was applied to a mass spectrometer (column: 1.8 UM, 2.1×100 mm; Waters, MA, USA, measurement equipment: Q Exactive Ultimate 3000; Thermo Fisher Scientific Inc.) to measure protoporphyrin IX (PPIX) in the cardiomyocytes.

Data set [7] relates to malondialdehyde (MDA) in myocardial tissues. The data set is described as follows: MDA (TBARS assay) in myocardial tissues, doxorubicin cardiomyopathy model. The note with it: day 14, FIG. 4.
The subject of data set [8] is acrolein in myocardial tissues. Kind of data set: Acrolein western blot of myocardial tissues, doxorubicin cardiomyopathy model. The note with it: day 14, FIG. 4. The text has this: (§1) The obtained image was quantitatively analyzed in image J (NIH). GAPDH (Santa Cruz Biotechnology Inc., sc-32233) was used as an internal control.
The test system of data set [9] is mitochondrial heme in myocardial tissues. The data set is described as follows: Mitochondrial heme (QuantiChrom Heme Assay Kit) in mouse heart tissues. The conditions noted are these: day 14, FIG. 9B.
Data set [10] relates to ALAS1. The data set is described as follows: Alas1 western blot in mouse heart tissues. It is filed as in vivo. The note with it: doxorubicin 6 mg/kg/dose, days 0, 2, 4; day 7; GAPDH internal control; FIG. 6B.
Text: as §1

Data set [11] deals with mitochondrial heme in rat primary cardiomyocytes. The data set is described as follows: Mitochondrial heme (QuantiChrom Heme Assay Kit) in cardiomyocytes. In kind it is cell-based. The note with it: FIG. 8C.
For data set [12], the system named is Primary cardiomyocytes. Kind of data set: Malondialdehyde (MDA) measurement by TBARS assay in doxorubicin-treated primary cardiomyocytes. In kind it is cell-based, rat. The note with it: FIG. 1. The procedure:
Primary cardiomyocytes were isolated by trypsin and collagenase treatment of the heart harvested from a neonatal rat, and inoculated onto a petri dish. After culture for several days, the culture medium was replaced with a serum-free medium (DMEM), and 2 μM (final concentration) doxorubicin was added from 24 hours later in the serum-free medium, and cardiomyocytes were lysed with a RIPA buffer and collected 24 hours after doxorubicin addition. Aminolevulinic acid (5′-ALA, 1 mM) or ferrostatin-1 (Fer-1, 50 µM) was added 1 hour before doxorubicin addition.

In data set [13] the test system is doxorubicin cardiomyopathy model. The data set is described as follows: Echocardiography in doxorubicin cardiomyopathy model. It is filed as in vivo, mouse. The conditions noted are these: FIG. 3.
Data set [14] concerns Primary cardiomyocytes. The data set is described as follows: Cell death evaluation assay in primary cardiomyocytes with various anthracycline anticancer agents. In kind it is cell-based, rat. The conditions noted are these: 5′-ALA 1 mM added 2 hours before DOX, DNR, THP, IDR or EPI (1 or 2 μM); 26 hours after addition; FIG. 5.
Protocol: Primary cardiomyocytes were isolated by trypsin and collagenase treatment of the heart harvested from a neonatal rat, and inoculated onto a petri dish. After culture for several days, the culture medium was replaced with a serum-free medium (DMEM), and doxorubicin (DOX; 1 or 2 μM), daunorubicin (DNR; 1 or 2 μM), pirarubicin (THP; 1 or 2 μM), idarubicin (IDR; 1 or 2 μM), or epirubicin (EPI; 1 or 2 μM) was added (final concentrations for all) from 24 hours later in the serum-free medium. Aminolevulinic acid (5′-ALA, 1 mM) was added 2 hours before doxorubicin addition. […] The obtained results were normalized with those of the control group defined as 1, and presented as data.
The mark [15] stands for this setting: doxorubicin 6 mg/kg/dose, days 0, 2, 4.
The mark [16] stands for this setting: 5′-ALA 1 mM added 1 hour before doxorubicin 2 μM, 24 hours after doxorubicin.
The mark [17] stands for this setting: 5′-ALA oral 300 mg/kg/day in drinking water from 3 days before initial doxorubicin.
Setting [18] is: 5′-ALA 300 mg/kg/day in drinking water from 3 days before doxorubicin.

Turning to `COc1cccc2c1C(=O)c1c(O)c3c(c(O)c1C2=O)C[C@@](O)(C(=O)CO)C[C@@H]3O[C@H]1C[C@H](N)[C@H](O)[C@H](C)O1` [doxorubicin], the “cell death-inducing effect in Hela cells” value in data set [1] (doxorubicin 2 μM) is given as “a cell death-inducing effects, which are the drug efficacy of doxorubicin, were observed”. Besides, the “cell death (ferroptosis) of cardiomyocytes” value (“cell death (ferroptosis)” below) in the data set with Primary cardiomyocytes [2] (doxorubicin 2 μM, 24 hours) is reported as “cell death (ferroptosis) of cardiomyocytes induced by doxorubicin”. The “mitochondrial iron in cardiomyocytes (Mito-FerroGreen signal intensity)” value in data set [3] (doxorubicin 2 μM, 24 hours) is “an iron excess state occurs”. Besides, the “total amount of iron in heart mitochondria (myocardial tissues)” value in data set [4] (setting [15]) is “an iron excess state is induced”. In addition, the “cell death-inducing effect in EL-4 cells (ratio of live cells to total cells)” value in data set [5] (doxorubicin 1 μM) is listed as “a cell death-inducing effects, which are the drug efficacy of doxorubicin, were observed”. Further, the “level of ALAS1 in cardiomyocytes” value in the data set with ALAS1 [6] is recorded as “decreased”. Further, the “level of protoporphyrin IX (PpIX) in cardiomyocytes” value in the data set with protoporphyrin IX (PpIX) is reported as “decreased”. Further, the “lipid peroxide (MDA) level in myocardial tissues” value in [7] (setting [15]) is “increase in lipid peroxide (acrolein and MDA) levels”. In addition, in data set [8] (setting [15]), the “lipid peroxide (acrolein) level in myocardial tissues” value was “increase in lipid peroxide (acrolein and MDA) levels”. Further, the “mitochondrial heme in myocardial tissues” value in data set [9] (setting [15]) is listed as “heme synthesis disorder is induced”. Moreover, the “level of ALAS1 in myocardial tissues” value in the data set on ALAS1 [10] is reported as “decreased”. Also, in [11] (doxorubicin 2 μM, 24 hours), the “mitochondrial heme in cardiomyocytes” value was “a heme synthesis disorder is induced”. Also, the “lipid peroxide level (MDA) in cardiomyocytes” value (“lipid peroxide level (MDA)” below) in the data set on Primary cardiomyocytes [12] (doxorubicin 2 μM, 24 hours) is recorded as “increase in lipid peroxide level in cardiomyocytes”. Besides, in [13] (doxorubicin 6 mg/kg/dose, days 0, 2, 4, tail vein), the “left ventricular contractility (left ventricular ejection fraction, LVEF)” value is on record as “reduction in left ventricular contractility”.

For the molecule `CCOC(=O)c1ccc(NC2CCCCC2)c(N)c1` [Fer-1, ferrostatin-1], the “cell death (ferroptosis)” value in the data set on Primary cardiomyocytes [2] (Fer-1 50 μM added 1 hour before 2 μM doxorubicin, 24 hours after doxorubicin) is “equivalent to the effect of Fer-1”. Further, the “lipid peroxide level (MDA)” value in the data set on Primary cardiomyocytes [12] (Fer-1 50 µM added 1 hour before 2 μM doxorubicin, collected 24 hours after doxorubicin) is on record as “equivalent to the effect of Fer-1”.

Consider `NCC(=O)CCC(=O)O` [5′-ALA, 5-aminolevulinic acid], for which the “attenuation of cell death-inducing effect of doxorubicin in Hela cells” value in [1] (5′-ALA 1 mM added 1 hour before doxorubicin 2 μM) is “the effects were not attenuated”. Besides, the “cell death (ferroptosis)” value in the data set with Primary cardiomyocytes [2] (5′-ALA 1 mM added 1 hour before 2 μM doxorubicin, 24 hours after doxorubicin) is “suppressed the cell death (ferroptosis) of cardiomyocytes”. In data set [3] (setting [16]), the “mitochondrial iron in cardiomyocytes (Mito-FerroGreen signal intensity)” value is “the iron excess state is normalized”. The “total amount of iron in heart mitochondria (myocardial tissues)” value in data set [4] (setting [17]) is recorded as “the iron excess state is normalized”. Also, in data set [5] (5′-ALA 1 mM added 1 hour before doxorubicin 1 μM), the “attenuation of cell death-inducing effect of doxorubicin in EL-4 cells” value is “the effects were not attenuated”. The “cell death of cardiomyocytes” value in the data set on Primary cardiomyocytes [14] is “suppressed the cell death of cardiomyocytes in all the administration groups”. In addition, the “lipid peroxide (MDA) level in myocardial tissues” value in data set [7] (setting [18]) is “significantly suppressed increase in lipid peroxide (acrolein and MDA) levels”. In addition, the “lipid peroxide (acrolein) level in myocardial tissues” value in data set [8] (setting [18]) was “significantly suppressed increase in lipid peroxide (acrolein and MDA) levels”. In data set [9] (setting [17]), the “mitochondrial heme in myocardial tissues” value was “the disorder is normalized”. The “mitochondrial heme in cardiomyocytes” value in data set [11] (setting [16]) is given as “the disorder is normalized”. For the same molecule, the “lipid peroxide level (MDA)” value in the data set on Primary cardiomyocytes [12] (5′-ALA 1 mM added 1 hour before 2 μM doxorubicin, collected 24 hours after doxorubicin) is listed as “suppressed increase in lipid peroxide level”. Also, the “left ventricular contractility (left ventricular ejection fraction, LVEF)” value in data set [13] (5′-ALA 300 mg/kg/day in drinking water from 3 days before doxorubicin (6 mg/kg/dose, days 0, 2, 4, tail vein), echocardiography 7 and 14 days) is “significantly improved reduction in left ventricular contractility”.
